Literature values in patent publication US8039024B2, “Device and composition for the delivery of a preservative-free balsamic cream” (APR Applied Pharma Research, S.A., priority 2008, dated 2011).

Conditions: sprayed directly onto the nasal mucosa of dogs and humans

CC1CCC(C(C)C)C(O)C1 (centres unmarked) [menthol, Menthol]
decongestant action: no decongestant action

CC12CCC(CC1=O)C2(C)C (centres unmarked) [camphor, Camphor]
decongestant action: no decongestant action
